Test results reported in US5473074A, “Adenosine diphosphoribose polymerase binding nitroso aromatic compounds useful as retroviral inactivating agents, anti-retroviral agents and anti-tumor agents-54” (priority 1992, dated 1995).
pIC50: −log10 of the molar value. Entries after “also recorded” stand apart in the source; their conditions may differ. Where two headings read alike, the source gives them in different places.

What was measured:
cells / HIV = assay: Anti-tumor / anti-HIV (biological) action, general statement
[1] = system: normal human stem cells (PBSC); assay: Colony formation (CFU-GM) of normal human stem cells (PBSC), FIG. 5B; format: cell-based; details: 0, 2, 4, 8 and 10 μM
[2] = system: human peripheral blood neutrophil leukocytes
855-2 cells [3] = assay: Colony formation (CFU) in semi-solid medium, 855-2; format: cell-based, human; details: single cells in semi-solid medium
[4] = system: human peripheral blood neutrophil leukocytes; assay: Superoxide generation by human neutrophils; details: 10 μM; 10^5 PMN + PMA (control 55.9 ± 7.7)
[5] = system: normal cells (neutrophil leukocytes and bone marrow or peripheral blood stem cells)
Experimental: (§1) Experiments were performed in which the functions of various cancer cells (855-2 and HL-60 leukemia cells, D32, D37 and CRL 7712 glioblastoma cell lines, 186 medulla tumor cell line, L1210 murine leukemia cell line, MDA-468 human breast tumor cell line) and normal cells (neutrophil leukocytes and bone marrow or peripheral blood stream cells) were assessed in the absence or presence of the compounds.

855-2 cells [6] = assay: MTT assay, cytocidal activity; format: cell-based, human; details: 10 μM, 100,000 cells/ml
Experimental: MTT (3-[4,5-[…]]-2,5-diphenyltetrazolium bromide) at 1 mg/ml was then added for 16 hours. The absorbance of the pelleted cell was then measured at 550 nm after adding DMSO to solubilze the cells.

H9 cells = assay: [3H]thymidine uptake, H9 cells; format: cell-based, human; details: 10% FCS
[7] = system: cancer cells (855-2 and HL-60 leukemia, D32, D37 and CRL 7712 glioblastoma, 186 medulla tumor, L1210 murine leukemia, MDA-468 human breast tumor); assay: Functions of cancer cells in absence or presence of compounds (FIGS. 4-9); format: cell-based
Experimental: as §1

HIV-1 = assay: Anti-HIV action on stimulated human lymphoblasts, virus titer; format: cell-based; details: 30 min exposure, virus alone 5.25
Experimental: VIII. Anti-HIV action of NOBP, NOBA and NOQ on stimulated human lymphoblasts
Exposure to the two drugs was only for 30 minutes at the commencement of viral infection, and drugs were never re-added. The results given in Table III provide the ID50 of HIV titer 10 days after infection of cell cultures with HIV.

calf thymus ADPRT = calf thymus ADPRT (Bos taurus, UniProt P18493); assay: ADPRT polymerase activity inhibition/inactivation (I50)
Experimental: The compounds of the subject invention were tested for their ability to inactivate the polymerase activity of adenosinediphosphoribosyl transferase (ADPRT). Assays were performed according to the method of Buki and Kun, Biochem. 27:5990-5995 (1988), using calf thymus ADPRT.
Assay conditions: ADPRT, 0.4 μg; coDNA, 4 μg; inhibitor diluted
between 0.8 and 600 μM, in 50 μl of 50 mM TrisHCl, 50 mM KCl, 5 mM
2mercaptoethanol, 0.5 mM EDTA, 0.1 mM NAD ([32Plabelled), pH 7.5.
Polymerization at 25° C. for 4 minutes.

HL-60 cells = assay: Colony formation (CFU) in semi-solid medium, HL-60; format: cell-based, human; details: single cells in semi-solid medium
855-2 leukemia cells = assay: 855-2 growth inhibition, comparison with vincristine (FIG. 7); format: cell-based, human
Experimental: Vincristine, a highly toxic chemotherapeutic compound, is currently used in the treatment of leukemia and other malignancies. […] Vincristine was tested in doses of 0.1, 1, 10 and 100 μM.

[8] = system: human leukemia cell lines (855-2, H9, HL-60, K562); assay: [3H]thymidine uptake, human leukemia cell lines (FIG. 2); format: cell-based
Experimental: FIGS. 2A-2F are composite of graphs displaying the inhibitory effects of the ADRPT ligands on (FIG. 2A) 855-2 cells (a cell line of human B-cell lineage acute lymphoblastic leukemia), (FIG. 2B) H9 cells (a cell line of human T-cell lineage acute lymphoblastic leukemia), (FIG. 2C) HL-60 cells (a cell line of human acute nonlymphoblastic leukemia) and (FIG. 2D) K562 cells (a cell line of human chronic myelogenous leukemia). These cells were cultured while under the influence of the growth factors in 10% fetal bovine serum (FCS), whereas in (FIG. 2E) and (FIG. 2F) the 855-2 cells were cultured in the presence of autocrine growth factor activity (AGF) or low molecular weight-B-cell growth factor (BCGF, a T-cell derived lymphokine), respectively.

K562 cells = assay: [3H]thymidine uptake, K562 cells; format: cell-based, human; details: 10% fetal bovine serum
855-2 cells [9] = assay: [3H]thymidine uptake / growth, 855-2 cells; format: cell-based, human
[10] = molecular target: Zn(HIV1-F1), N-terminal CCHC zinc finger of the HIV-1 NC protein (Human immunodeficiency virus type 1 lw12.3 isolate, UniProt Q70622); details: Summers, et al.; cited from earlier work
ADPRT = details: cited from earlier work
[11] = system: normal rhesus bone marrow stem cells; assay: CFU stem cell toxicity assay, FIG. 5A
[12] = not told
[13] = system: malignant transformation / neoplasia; details: in vitro and in vivo; Tseng, et al.; cited from earlier work

Chain of calf thymus ADPRT (P18493 whole entry): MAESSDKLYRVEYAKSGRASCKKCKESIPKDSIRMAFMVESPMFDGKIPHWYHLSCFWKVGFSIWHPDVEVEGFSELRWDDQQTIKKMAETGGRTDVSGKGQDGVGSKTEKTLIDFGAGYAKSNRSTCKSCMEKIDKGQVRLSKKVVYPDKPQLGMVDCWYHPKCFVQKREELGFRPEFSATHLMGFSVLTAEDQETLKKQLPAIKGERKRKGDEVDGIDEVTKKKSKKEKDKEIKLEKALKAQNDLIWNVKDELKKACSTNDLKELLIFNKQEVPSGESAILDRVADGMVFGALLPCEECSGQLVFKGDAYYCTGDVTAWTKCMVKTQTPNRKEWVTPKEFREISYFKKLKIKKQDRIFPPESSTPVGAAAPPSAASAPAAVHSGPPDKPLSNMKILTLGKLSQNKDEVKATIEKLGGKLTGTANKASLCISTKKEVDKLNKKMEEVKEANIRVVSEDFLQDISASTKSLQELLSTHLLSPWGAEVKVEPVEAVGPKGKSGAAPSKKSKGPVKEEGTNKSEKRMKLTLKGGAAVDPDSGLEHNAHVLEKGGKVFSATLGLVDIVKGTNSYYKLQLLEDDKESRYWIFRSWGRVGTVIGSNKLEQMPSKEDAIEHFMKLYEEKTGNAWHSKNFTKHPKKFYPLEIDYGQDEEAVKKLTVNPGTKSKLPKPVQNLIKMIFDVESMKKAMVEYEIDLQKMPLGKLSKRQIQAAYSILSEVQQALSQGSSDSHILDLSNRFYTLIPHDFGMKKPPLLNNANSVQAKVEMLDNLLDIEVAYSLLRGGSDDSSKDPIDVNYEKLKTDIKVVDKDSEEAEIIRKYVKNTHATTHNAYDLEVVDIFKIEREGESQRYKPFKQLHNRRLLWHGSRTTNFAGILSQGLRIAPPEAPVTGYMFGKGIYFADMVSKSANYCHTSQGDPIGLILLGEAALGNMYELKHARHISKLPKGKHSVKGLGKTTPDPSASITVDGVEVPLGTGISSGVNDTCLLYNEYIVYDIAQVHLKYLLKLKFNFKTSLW

Q: Which results are given for `O=Nc1ccc2oc(=O)ccc2c1` [NOBP, 6-nitroso-1,2-benzopyrone]?
A: anti-tumor and anti-HIV activity, in words (cells / HIV): highly active as anti-tumor and anti-HIV molecules; effectiveness after short exposure of cells (cells / HIV; exposure as short as 30 minutes): effective even after exposure of cells for a period as short as 30 minutes; cytotoxicity on CFU-GM of PBSC, in words [1]: Toxicity was not detected; superoxide generation, in words [2]: Only minor reductions in superoxide generation; colony formation, 855-2, in words (855-2 cells [3]): inhibit the ability of human leukemic cells (855-2 and HL-60) to form colonies; superoxide generation by human neutrophils (mean + S.D., n = 11) [4]: 34.1 ± 14.1 nmol O2^- /hr/10^5 cells; effect on normal stem cell colony formation (FIG. 5), in words [5]: minimal effect on normal cells; effect on viability of normal cells, in words [5]: not to affect adversely the viability of normal cells; toxicity to normal cells, in words [5]: not toxic to normal cells; killing of 855-2 cells (MTT), in words (855-2 cells [6]): complete killing; inhibition of thymidine uptake, H9 (H9 cells; 100 μM): almost complete inhibition; inhibition at 10 µM (H9 cells; Homo sapiens, H9, 10 μM): ~30%; activity against tumor cells, in words [7]: highly effective (against tumor cells); Virus Titer (log ID50), 10 days (HIV-1; 10 μM): 2.01 log ID50; pIC50 (calf thymus ADPRT): 4.40; colony formation, HL-60, in words (HL-60 cells): inhibit the ability of human leukemic cells (855-2 and HL-60) to form colonies; potency relative to vincristine (855-2 leukemia cells; vs equal concentration of vincristine): about 10 times more potent; inhibition of 3H-thymidine uptake, in words ([8]; 10 μM, 855-2, H9, HL-60, K562 cells): powerfully inhibited 3H-thymidine uptake; molar concentrations needed to inhibit 3H-thymidine uptake, in words ([8]; each of the cell lines tested): able to inhibit 3H-thymidine uptake in lower molar concentrations than the other compounds; inhibition of cell growth (thymidine uptake), K562 (K562 cells; 100 μM): almost complete inhibition; relative potency, K562 (K562 cells): most potent inhibitors of cell growth; also recorded: almost as potent as NOQ; relative inhibition of thymidine uptake, 855-2 (855-2 cells [9]; 1 μM, 10% fetal bovine serum): somewhat more inhibition than NOBA; inhibition of thymidine uptake, 855-2 (855-2 cells [9]; 10 μM, 10% fetal bovine serum): almost complete inhibition; growth arrest of 855-2 cells at increasing serum concentration (855-2 cells [9]; 10 μM, increasing FCS): Growth arrest occurs irrespective of the concentration of FCS; relative potency, 855-2 (855-2 cells [9]; 10% fetal bovine serum): potent inhibitory effects regardless of the source of growth factor activity

Q: Which “concentration required to produce the same level of inhibition as 10 μM NOBP” value (855-2 leukemia cells; in vitro) does the source give for `CC[C@]1(O)C[C@H]2CN(CCc3c([nH]c4ccccc34)[C@@](C(=O)OC)(c3cc4c(cc3OC)N(C=O)[C@H]3[C@@](O)(C(=O)OC)[C@H](OC(C)=O)[C@]5(CC)C=CCN6CC[C@]43[C@@H]65)C2)C1` [vincristine, reference compound] here?
A: Its value is 100 µM.

Q: For `O=C(O)CN(CCN(CC(=O)O)CC(=O)O)CC(=O)O` [EDTA], which “molar excess required to remove zinc from Zn(HIV-1-F1)” value [10] is on record?
A: The value was 10 -fold molar excess.

Q: Which “inhibition of ADPRT polymerase activity, in words” value (ADPRT) does the source give for `c1ccc2cnccc2c1` [isoquinoline] here?
A: Its value is “known to inhibit ADPRT polymerase activity”.

Q: With `Nc1ccc2oc(=O)ccc2c1` [ABP, 6-amino-1,2-benzopyrone] as the compound, how does the “ADPRT binding, in words” value (ADPRT; site that also binds to DNA, Hakam, et al.) read?
A: Its value is “binds specifically to ADRPT at the site that also binds to DNA”.

Q: And the “CFU stem cell toxicity, in words” value ([11]; 1 mM)?
A: The value was “toxic at the tested given doses”.

Q: And the “Virus Titer (log ID50), 10 days” value (HIV-1; 500 μM)?
A: The value was 4.50 log ID50.

Q: What about the pIC50 (calf thymus ADPRT) of the same compound?
A: Its pIC50 is 3.43.

Q: For `NC(=O)c1ccccc1` [benzamide], which “inhibition of ADPRT polymerase activity, in words” value (ADPRT) is on record?
A: The value was “known to inhibit ADPRT polymerase activity”.

Q: Which “inhibition of ADPRT polymerase activity, in words” value (ADPRT) does the source give for 3-aminonaphthylhydrazide here?
A: Its value is “known to inhibit ADPRT polymerase activity”.

Q: Which “biological action relative to 6-NO-1,2-benzopyrone” value (cells / HIV; vs 6-NO-1,2-benzopyrone) does the source give for `O=Nc1ccc2oc(=O)ccc2c1I` [5-I-6-NO-1,2-benzopyrone, 5-iodo-6-nitroso-1,2-benzopyrone] here?
A: The value was 10 times weaker.

Q: And the “ADPRT inhibition, in words” value (calf thymus ADPRT)?
A: Its value is “relatively poor inhibitor of ADRPT”.

Q: What about the pIC50 (calf thymus ADPRT) of the same compound?
A: The pIC50 was 3.40.

Q: What about the “permeation, in words” value [12] of the same compound?
A: The value was “poor permeant molecule”.

Q: For `Nc1ccc2oc(=O)ccc2c1I` [IABP, 5-iodo-6-amino-1,2-benzopyrone], which “inhibition of ADPRT polymerase activity, in words” value (ADPRT) is on record?
A: The value was “known ADPRT polymerase activity inhibitors”.

Q: What about the “CFU stem cell toxicity, in words” value ([11]; 250 μM) of the same compound?
A: The value was “toxic at the tested given doses”.

Q: What about the “Virus Titer (log ID50), 10 days” value (HIV-1; 250 μM) of the same compound?
A: Its value is 4.66 log ID50.

Q: What about the pIC50 (calf thymus ADPRT) of the same compound?
A: Its pIC50 is 4.39.

Q: For `O=c1c(O)c(-c2ccc(O)c(O)c2)oc2cc(O)cc(O)c12` [quercetin], which “inhibition of ADPRT polymerase activity, in words” value (ADPRT) is on record?
A: The value was “known to inhibit ADPRT polymerase activity”.

Q: What does the source list for `O=c1ccc2cc([N+](=O)[O-])ccc2o1` [NO2 BP, 6-nitro-1,2-benzopyrone]?
A: activity against tumor cells, in words [7]: weakly active; activity against tumor cells, in words ([7]; listed as 6-nitro derivative): almost ineffective (against tumor cells); Virus Titer (log ID50), 10 days (HIV-1; 250 μM): 4.93 log ID50

Q: What does the source list for `O=c1ccc2ccccc2o1` [coumarin (1,2-benzopyrone), 1,2-benzopyrone]?
A: inhibition of ADPRT polymerase activity, in words (ADPRT): known to inhibit ADPRT polymerase activity; inhibition of ADPRT polymerase activity, in words (ADPRT; listed as 1,2-benzopyrone (coumarin)): inhibitory ligand of adenosinediphosphoribosyl transferase (ADPRT); anti-transforming and anti-neoplastic effect, in words [13]: anti-transforming and anti-neoplastic effect
